Patent US20130209515A1, “ANTI-INFECTIVE AND IMMUNOMODULATORY COMPOUNDS” (priority 2005, published 2013)
Converted amounts (≈) assume the structure as drawn. “Also recorded” adds a separate entry of the source.

Experiments:
[1] = system: P. aeruginosa PA14; assay: PA14 systemic spread in BI mice (cfu in muscle and blood); format: in vivo
Description: Furthermore, 6-FABA, 6CABA, and 4CABA efficacy in limiting PA14 systemic spread was assessed by comparing burn mice infected with PA14 and then treated with the compounds at 6 hr BI with control untreated BI mice. For each experimental set of n=18, 6 mice were sacrificed at 24 hr, and bacteria numbers were determined in muscle tissue underlaying or adjacent to the […] site and in blood. The inoculation procedure used in the thermal injury model greatly limits the initial delivery of bacteria to blood and muscle, so bacteria in these tissues reflect post-infection systemic spread.
In an experiment to determine the whether 6-fluoro-2-aminobenzoic acid (6FABA) affects the systemic spread of P. aeruginosa cells in a mouse burn/infection model, the results of which are shown in FIGS. 28A and 28B, 15 mice were treated with 100 μL of a 20 mM solution of 6-FABA 6 hrs or 12 hours post-burn and infection, and the PA14 cfu/mg of tissue (i.e., in blood and in muscle adjacent to the burn and infection) was determined at 24 hours and 36 hours post-burn.

[2] = system: P. aeruginosa; assay: P. aeruginosa growth kinetics (spectrophotometric analysis at 600 nm); format: cell-based, Pseudomonas aeruginosa; conditions: FIG. 23B
Text: P. aeruginosa strains include wild-type (PA14, see Rahme et al., Science 268:1899-1902, 1995); a PA14 mvfR mutant (Cao et al., Proc. Natl. Acad. Sci. USA 98:14613-14618, 2001); a pqsE deletion mutant, generated via pEX18Ap allelic replacement by using sucrose selection (Hoang et al., Gene 212:77-86, 1998), resulting in a 570-bp nonpolar deletion covering 65% of the sequence (Déziel et al. PNAS); and the pqsA (U479) TnphoA mutant obtained from the PA14 Transposon Insertion Mutant Database. Bacteria were grown in LB broth or on 1.5% Bacto-agar (Difco) LB plates. Freshly plated cells served as inoculum.
P. aeruginosa was grown in the presence of 2 mM of 2′-aminoacetophenone (2AA), 3′-aminoacetophenone (3AA), 4′-aminoacetophenone (4AA), or 2′-nitroacetophenone (2NA), or in the absence of any of these compounds (control). Bacterial growth was followed over 26 hours by spectrophotometric analysis at 600 nm.
Bacterial growth was also followed over 35 hours by spectrophotometric analysis at 600 nm.

[3] = Toxicity of IV 6-FABA in burned mice; format: in vivo
Description: Initial experiments were aimed at defining an appropriate mouse administration protocol for 6-FABA, with regard to concentration, time of administration following infection, and inhibition of virulence. […] Accordingly, burn and PA14 infected (BI) mice were subsequently administered a single injection of 20 mM 6-FABA at 6 or 12 hr post BI; and double injections at 6 and 24 hr BI.

[4] = target: T1, PqsA (Pseudomonas aeruginosa, UniProt Q9I4X3); assay: Anthranilic acid accumulation and AA competition in PA14 cultures; format: cell-based
T1 construct: endogenous in cells; host or cells: P. aeruginosa PA14 cultures
T1 sequence (Q9I4X3 whole entry): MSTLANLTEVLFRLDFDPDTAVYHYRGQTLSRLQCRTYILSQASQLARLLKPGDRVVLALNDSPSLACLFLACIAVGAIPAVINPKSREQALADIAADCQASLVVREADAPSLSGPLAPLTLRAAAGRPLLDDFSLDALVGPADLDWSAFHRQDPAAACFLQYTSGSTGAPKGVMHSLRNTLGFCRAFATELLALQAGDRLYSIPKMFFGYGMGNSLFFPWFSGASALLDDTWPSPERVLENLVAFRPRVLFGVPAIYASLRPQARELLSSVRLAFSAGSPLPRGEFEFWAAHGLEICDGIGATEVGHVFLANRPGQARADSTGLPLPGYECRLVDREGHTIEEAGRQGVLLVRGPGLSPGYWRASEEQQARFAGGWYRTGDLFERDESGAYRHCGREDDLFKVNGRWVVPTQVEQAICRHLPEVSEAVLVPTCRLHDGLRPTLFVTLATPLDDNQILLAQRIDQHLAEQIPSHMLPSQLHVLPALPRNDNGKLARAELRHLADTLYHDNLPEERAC
Text: In P. aeruginosa anthranilic acid is also produced by the enzymatic systems PhnAB or TrpEG. […] This accumulation could be due to inhibition of PqsA or of any enzyme downstream in the HAQ biosynthesis. […] This reversal could only be explained by a competitive inhibition of an enzyme acting on AA. Because pqsA is the only enzyme of the pqsA-E operon to present similarities with enzymes involved in the activation of aromatic acid group, like the one found in anthranilic acid, we conclude that these inhibitors act on PqsA in a competitive manner with its substrate AA.

[5] = system: pyocyanin production; assay: Pyocyanin production; format: cell-based, Pseudomonas aeruginosa
[6] = system: 4-hydroxy-2-alkylquinoline (HAQ) production; format: cell-based, Pseudomonas aeruginosa
[7] = physchem; conditions: saline or isotonic
[8] = system: P. aeruginosa PA14; assay: Mouse burn and infection (BI) model, survival; format: in vivo, mice
Description: Burn wound infection in mice can be established by subcutaneous or topical administration of the bacteria to the sites of the burn. […] Six-week old CD-1 male mice were used.
To induce infection, the mice were placed under general anesthesia via intraperitonial injection of 40 mg/kg Pentobarbital, the ventral surface was shaved, and a central skin fold elevated was simultaneously compressed from both sides for 5 seconds using two 2×2 cm metal blocks preheated to 95-100° C., to produce a non-lethal 5-8% full thickness burn with negligible focal necrosis of the underlying muscle or damage to underlying visceral organs. IP saline was administered for fluid resuscitation for ≧5% total body surface burns: avoiding vital structures, saline was injected into the left lower quadrant of the abdominal area of the anesthetized animal post-burn. This burn procedure was followed by mid-eschar inoculation of 100 μL of bacterial suspension containing ˜5×10^5 CFU. The animals were returned to their cages and provided mouse chow and water ad libitum. Animals typically recover from the anesthesia within 20 minutes post-administration. Criteria used to evaluate anesthesia recovery are state of alertness, mobility, and reaction to surrounding stimuli. Mice were monitored twice a day for symptoms and deaths, with increased monitoring every 6-8 hours during the period of greatest potential for infection and clinical disease.
The mouse full-thickness skin thermal injury infection model was used to test if 2AA restricts P, aeruginosa virulence. This model is predictable and reproducible; clinically relevant; and can lead to MODS and mortality. Briefly, a ˜15% total burn surface area (TBSA) thermal scalding injury is produced on the abdominal skin, leaving the underlying muscle intact, and the inoculum is delivered into the scald eschar. […]

Compound: Nc1cccc(F)c1C(=O)O [6-FABA, 6-fluoro-2-aminobenzoic acid]
- systemic dissemination of P. aeruginosa (cfu/mg in muscle adjacent to burn) ([1]; 100 μL of 20 mM 6-FABA post-burn and infection (FIG. 28A)): limits significantly the systemic dissemination
- bacteria in blood ([1]; 100 μL of 20 mM 6-FABA, blood at 24 hrs (FIG. 28B)): no bacteria are detected
- bacterial growth (PA14) [2]: without affecting bacterial growth
- toxicity (deaths) ([3]; second IV injection of 20 mM at 12 or 18 hr): a significant number of mice die
- mortality ([3]; second IV injection of 20 mM at 24 hr): 10%
- toxicity ([3]; single IV injection 100 μl 20 mM, 6 hrs post-burn): non-toxic
- accumulation of anthranilic acid ([4]; PA14 culture with inhibitor vs control (FIG. 31)): transient accumulation
- effect of increasing concentrations of AA on inhibition of HAQ production ([4]; culture containing 1.5 mM inhibitor (FIG. 32)): reversed the inhibition
- pyocyanin production [5]: without abrogating pyocyanin production
- HAQ production / HAQs synthesis [6]: inhibited HAQ production; also recorded: completely halted
- inhibition of 4-hydroxy-2-alkylquinoline (HAQ) production [6]: potent inhibitors; also recorded: potently inhibit
- production of the principal members of the three main HAQ families (HHQ, HQNO, PQS) [6]: dramatically decreased; also recorded: strongly inhibited
- solubility [7]: 20 mM (≈ 3100 µg/mL)
- time course of mortality ([8]; single IV injection 20 mM at 6 hr BI (FIG. 26)): delayed mortality
- survival ([8]; single IV injection 20 mM at 6 hr BI, control 10% (FIG. 26)): 40%
- survival ([8]; single IV injection 20 mM at 12 hr BI (FIG. 26)): up to 60%
- final mice survival rate at 7 days post burn and infection ([8]; single IV injection at 6 hrs (100 μl 20 mM), control 10% (FIG. 24)): ~35%
